From ChEMBL document CHEMBL1201862, “PubChem BioAssay data set” (2004)
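Five compound concentrations were applied to cells in 96-well plates for 48 hours; endpoints were derived by simple linear interpolation of the resulting dose-response curve. GI50: concentration for 50% inhibition of growth.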 The source made the active and inactive calls. No stated cut-off is given here; in the data, active = GI50 up to about 1.1 µM and inactive = higher.

How the values were obtained:
Assay in all cases: DTP human tumour cell line panel, 48 h
HL-60 = system: HL-60
HOP-92 = system: HOP-92
HT-29 = system: HT-29
K562 = system: K562
M14 = system: M14
Malme-3M = system: Malme-3M
OVCAR-3 = system: OVCAR-3
OVCAR-4 = system: OVCAR-4
OVCAR-5 = system: OVCAR-5
OVCAR-8 = system: OVCAR-8
SF-295 = system: SF-295
SF-539 = system: SF-539
SK-MEL-28 = system: SK-MEL-28
SK-MEL-5 = system: SK-MEL-5
SK-OV-3 = system: SK-OV-3
SNB-75 = system: SNB-75
TK-10 = system: TK-10
UO-31 = system: UO-31
NCI-H226 = system: NCI-H226
HCC 2998 = system: HCC 2998

Measured: GI50

O=C1C(Cl)N(c2ccccc2[N+](=O)[O-])C1c1c[nH]c2ccccc12 (configuration not stated)
inactive: HL-60 > 100 µM | HOP-92 81.3 µM | HT-29 > 100 µM | K562 > 100 µM | M14 > 100 µM | Malme-3M 94.4 µM | OVCAR-3 > 100 µM | OVCAR-4 > 100 µM | OVCAR-5 1.36 µM | OVCAR-8 > 100 µM | SF-295 > 100 µM | SF-539 > 100 µM | SK-MEL-28 > 100 µM | SK-MEL-5 > 100 µM | SK-OV-3 > 100 µM | SNB-75 27.4 µM | TK-10 > 100 µM | UO-31 54.6 µM

Cn1cc(-c2csc(-c3cn(C)c4ccccc34)n2)c2ccccc21
inactive: HL-60 > 100 µM | HOP-92 20.8 µM | HT-29 > 100 µM | K562 11.2 µM | M14 26.7 µM | Malme-3M 19.1 µM | NCI-H226 32.2 µM | OVCAR-3 23.5 µM | OVCAR-4 22.2 µM | OVCAR-5 95.9 µM | OVCAR-8 25.6 µM | SF-295 23.4 µM | SK-MEL-28 61.5 µM | SK-MEL-5 26.9 µM | TK-10 27 µM | UO-31 > 100 µM

CCN(CC)c1cccc2c1/C(=N/O)CCCC2
inactive: HL-60 > 100 µM | HT-29 97.1 µM | K562 46.8 µM | Malme-3M > 100 µM | NCI-H226 > 100 µM | OVCAR-4 > 100 µM | OVCAR-8 > 100 µM | SF-295 83.8 µM | SK-MEL-28 > 100 µM | SK-MEL-5 70.8 µM | SK-OV-3 > 100 µM | SNB-75 84.1 µM | TK-10 > 100 µM | UO-31 > 100 µM

CN(C)C(=O)NCCN1CCCCCc2ccccc21
inactive: HCC 2998 > 100 µM | HL-60 31.3 µM | HOP-92 32.4 µM | HT-29 > 100 µM | K562 > 100 µM | M14 46.3 µM | Malme-3M > 100 µM | NCI-H226 49.7 µM | OVCAR-3 37 µM | OVCAR-4 78 µM | OVCAR-5 > 100 µM | OVCAR-8 > 100 µM | SF-295 > 100 µM | SF-539 > 100 µM | SK-MEL-28 > 100 µM | SK-MEL-5 24.3 µM | SK-OV-3 > 100 µM | TK-10 > 100 µM | UO-31 > 100 µM

CCOC(=O)c1cc(Br)c(-c2cc(C)no2)[nH]1
inactive: HL-60 24.7 µM | HOP-92 29.9 µM | HT-29 41.6 µM | M14 39.7 µM | Malme-3M 20.9 µM | NCI-H226 31 µM | OVCAR-3 21.3 µM | OVCAR-4 23.3 µM | OVCAR-5 49 µM | OVCAR-8 35.8 µM | SF-295 31.1 µM | SF-539 33.8 µM | SK-MEL-28 32.4 µM | SK-MEL-5 21.7 µM | SK-OV-3 41.6 µM | SNB-75 23.9 µM | TK-10 46.5 µM | UO-31 29.1 µM

CC(=O)NNc1nc(C)c(C(=O)NNC(=O)C(=O)Nc2ccc([N+](=O)[O-])cc2C#N)s1
inactive: HCC 2998 > 100 µM | HL-60 > 100 µM | HT-29 > 100 µM | K562 38.1 µM | M14 > 100 µM | Malme-3M > 100 µM | NCI-H226 > 100 µM | OVCAR-3 63.5 µM | OVCAR-4 45.3 µM | OVCAR-5 > 100 µM | OVCAR-8 > 100 µM | SF-295 > 10 µM | SF-539 > 100 µM | SK-MEL-28 > 100 µM | SK-MEL-5 > 100 µM | SK-OV-3 > 100 µM | TK-10 > 100 µM | UO-31 > 100 µM

CC1CC/C(=C\c2ccc(N(C)C)cc2)C2=C1C(c1ccc(N(C)C)cc1)NC(=S)N2 (configuration not stated)
inactive: HL-60 > 100 µM | HT-29 > 100 µM | K562 > 100 µM | M14 > 100 µM | Malme-3M > 100 µM | NCI-H226 > 100 µM | OVCAR-3 > 100 µM | OVCAR-5 > 100 µM | OVCAR-8 > 100 µM | SF-295 > 100 µM | SF-539 > 100 µM | SK-MEL-28 > 100 µM | SK-MEL-5 > 100 µM | SK-OV-3 > 100 µM | SNB-75 > 100 µM | TK-10 > 100 µM | UO-31 > 100 µM

COc1cccc(OCC(=N/NC(=O)c2ccncc2)/N=C/c2ccncc2)c1
inactive: HCC 2998 > 100 µM | HL-60 > 100 µM | HOP-92 > 100 µM | HT-29 > 100 µM | K562 > 100 µM | M14 > 100 µM | Malme-3M > 100 µM | NCI-H226 > 100 µM | OVCAR-3 > 100 µM | OVCAR-4 > 100 µM | OVCAR-5 > 100 µM | OVCAR-8 > 100 µM | SF-295 > 100 µM | SF-539 > 100 µM | SK-MEL-28 > 100 µM | SK-OV-3 > 100 µM | TK-10 > 100 µM
